According to US20030235646A1, “Method for improving quality of meat by supplementing pig diets and concentrates used therefor” (Lonza Inc., priority 2002, published 2003):

Test system: finishing pigs
Assay: Carcass characteristics of finishing pigs fed Carnitine and Paylean (Example 2)
Assay type: in vivo
Conditions: for Drip loss / Hue angle / L* / Saturation index / Temperature 5 min / Temperature 15 min / Temperature 45 min / Temperature 1.5 h / Temperature 3 h / Temperature 6 h / a* / a*/b* / b* / pH 0 min / pH 5 min / pH 15 min / pH 45 min / pH 1.5 h / pH 3 h / pH 6 h / pH 24 h / Firmness / Marbling / Visual cobra: Paylean 0 g/ton; for Firmness / Marbling / Visual cobra: score 1 to 5
Experimental: Because of the dramatic and potentially economically important changes in pork quality observed in the data of Example 1, a second trial was conducted to confirm these observations. This experiment was conducted in the same facility as Example 1 and used the same diet in Table 1. The primary difference was that the 4.5 g/ton ractopamine level was not included; i.e., only 0 or 9 grams/ton ractopamine was combined with either 0, 25, or 50 ppm of added L-camitine.

Structure (SMILES): C[N+](C)(C)C[C@H](O)CC(=O)[O-] [Carnitine, L-carnitine]
- Drip loss (Carnitine 25 ppm): 3.07%
- Hue angle (Carnitine 25 ppm): 64.61
- L* (Carnitine 25 ppm): 57.23
- Saturation index (Carnitine 25 ppm): 17.59
- Temperature 5 min (Carnitine 25 ppm): 39.79 °C
- Temperature 15 min (Carnitine 25 ppm): 39.92 °C
- Temperature 45 min (Carnitine 25 ppm): 39.03 °C
- Temperature 1.5 h (Carnitine 25 ppm): 32.87 °C
- Temperature 3 h (Carnitine 25 ppm): 22.12 °C
- Temperature 6 h (Carnitine 25 ppm): 11.28 °C
- a* (Carnitine 25 ppm): 7.58
- a*/b* (Carnitine 25 ppm): 0.48
- b* (Carnitine 25 ppm): 15.86
- pH 0 min (Carnitine 25 ppm): 7.13
- pH 5 min (Carnitine 25 ppm): 6.84
- pH 15 min (Carnitine 25 ppm): 6.60
- pH 45 min (Carnitine 25 ppm): 6.16
- pH 1.5 h (Carnitine 25 ppm): 5.91
- pH 3 h (Carnitine 25 ppm): 5.76
- pH 6 h (Carnitine 25 ppm): 5.70
- pH 24 h (Carnitine 25 ppm): 5.61
- Firmness (Carnitine 25 ppm): 2.44
- Marbling (Carnitine 25 ppm): 1.75
- Visual cobra (Carnitine 25 ppm): 3.10
- Drip loss (Carnitine 50 ppm): 2.73%
- Hue angle (Carnitine 50 ppm): 64.07
- L* (Carnitine 50 ppm): 58.00
- Saturation index (Carnitine 50 ppm): 18.11
- Temperature 5 min (Carnitine 50 ppm): 39.17 °C
- Temperature 15 min (Carnitine 50 ppm): 39.56 °C
- Temperature 45 min (Carnitine 50 ppm): 38.73 °C
- Temperature 1.5 h (Carnitine 50 ppm): 33.17 °C
- Temperature 3 h (Carnitine 50 ppm): 20.89 °C
- Temperature 6 h (Carnitine 50 ppm): 11.22 °C
- a* (Carnitine 50 ppm): 7.93
- a*/b* (Carnitine 50 ppm): 0.49
- b* (Carnitine 50 ppm): 16.27
- pH 0 min (Carnitine 50 ppm): 7.21
- pH 5 min (Carnitine 50 ppm): 6.82
- pH 15 min (Carnitine 50 ppm): 6.58
- pH 45 min (Carnitine 50 ppm): 6.02
- pH 1.5 h (Carnitine 50 ppm): 5.97
- pH 3 h (Carnitine 50 ppm): 5.88
- pH 6 h (Carnitine 50 ppm): 5.70
- pH 24 h (Carnitine 50 ppm): 5.60
- Firmness (Carnitine 50 ppm): 2.34
- Marbling (Carnitine 50 ppm): 1.55
- Visual cobra (Carnitine 50 ppm): 2.90
- meat quality (in pigs fed Paylean): improves meat quality
